Experiments:
Vero cells = type: cell-based; settings: green monkey, 96 h
Experimental: (§1) Compounds were added to the plates and diluted following a dose-response pattern in assay medium. Vero cells were prepared in assay medium and added to each well as described ([Martinez-Peinado et al., 2020]). Each test plate contained its own negative (untreated cells) and positive (medium alone) control wells ([Martinez-Peinado et al., 2020]). BNZ and digitoxin (DTX) were included as non-toxicity and toxicity drug controls, respectively. Parallel assays with HepG2 cells were carried out to evaluate the toxicity of compounds in a human cell line as described ([Martinez-Peinado et al., 2020]). […] Vitality was measured with Alamar Blue (Thermo Fischer Scientific, Waltham, USA) to detect metabolically active (live) cells by fluorimetry. For this, a PBS dilution with 10% Alamar Blue was added to each well and the plates were incubated at 37°C for 6 h. Readout was performed on a TECAN Infinite M Nano+ reader (Tecan Trading AG, Männedorf, Switzerland) using i-control™ 2.0 software and setting excitation at 530 nm and emission at 590 nm.

HepG2 cells = assay: HepG2 cell toxicity assay (Alamar Blue, 48 h); type: cell-based, human
Experimental: as §1

[1] = tested on: T. cruzi Tulahuen parasites; settings: Vero TC50 / anti-T. cruzi IC50
Experimental: Trypomastigotes were isolated for the maintenance of the cycle and for the performance of the antiparasitic assays, respectively. Briefly, medium containing free swimming trypomastigotes was harvested in falcon tubes and centrifuged at 2,500 rpm for 10 minutes to remove cell debris. […] In the second case, another centrifugation was made to get rid of any PR remnants that may interfere in the assay readout.
Compounds were added to a flat 96-well cell culture plate (SPL Life Sciences, Pocheon-si, Korea) and diluted in assay medium following a 1:2 dose-response pattern. Vero cells were detached, washed and counted using a Neubauer chamber. On the other side, T. cruzi trypomastigotes were collected and counted. Then, 50,000 trypomastigotes and 50,000 Vero cells were simultaneously added to each well to reach a final volume of 200 μl per well (multiplicity of infection or MOI = 1). […] Note that trypomastigotes are unable to multiply and therefore they mark the enzymatic time zero. In addition to those controls, BNZ-treated wells were also included as a positive control of drug inhibition. Plates were incubated at 37°C for 96 h. After that, chlorophenol red-β-D-galactopyranoside (CPRG) substrate was added to detect the enzymatic activity of β-galactosidase expressed by the parasites. […] Absorbance was measured at 590 nm in an Epoch Gene5 Microplate Spectrophotometer (BioTek, Winooski, USA).
(§2) Half maximum inhibitory (IC50) and half maximum toxicity concentration (TC50) values were determined with GraphPad Prism 7 software (version 7.00, San Diego, USA) using a nonlinear regression analysis model defined by equation 2:
(§3) Values were expressed as means with standard deviations (SD) of at least three independent experiments.

T. cruzi amastigotes = assay: Amastigotes growth inhibition assay (infected Vero cells, 72 h, CPRG); settings: for IC50: Trypanosoma cruzi, Vero, 72 h, read-out: [IC50] Anti-amastigote assay; for activity against amastigotes: active = IC50 ≤ 10× that of BNZ
Experimental: Upon washing the monolayers with PBS, purified trypomastigotes were added at a concentration of 1×10^7 trypomastigotes per flask (MOI = 1) and infected monolayers were kept in assay medium. After 18 h, infected Vero cells were PBS-washed and trypsin-detached, diluted at a concentration of 5×10^5 cells per ml in assay medium and 100 μl of that solution (50000 cells) added to 96-well test plates already containing the compounds.
as §2, §3

[2] = Microscopy-based observation of compound dissolution / crystals in assay medium; type: physicochemical; settings: for solubility: compounds at 750 μM, read-out: solubility issues / crystals formed during the assays
Experimental: Among the eight compounds selected, five carried the benzene ring group at position C8 illustrating the relevance of this substituent. Family by family, L4-0c was the only selected from L4-0.
Figure S3. Crystals of the compounds [750 μM] formed during the assays. The eight compounds selected through the discovery cascade are shown in bold. Besides, those indicated with an asterisk too had solubility issues. BNZ is shown at 400 μM.

SMILES	[TC50] Vero cells assays (Vero cells)	[TC50] HepG2 assay (HepG2 cells; human)	SI Vero cells assays (TC50/IC50) [1]	IC50 (T. cruzi amastigotes)	dissolution in assay medium (microscopy-based observation) [2]	activity against amastigotes (T. cruzi amastigotes)	solubility [2]	[TC50] HepG2 assay (HepG2 cells; HepG2 cells, mean ± SD)
O=C(Cn1ccnc1[N+](=O)[O-])NCc1ccccc1 [BNZ, benznidazole, reference compound]	196.90 ± 30.67 µM	490.90 ± 267.10 µM	81.36	1.47 ± 0.08 µM	–	–	–	–
Cc1nc2c(NCc3ccccc3)ncnc2n1Cc1ccccc1 [Compound L4-0b]	68.16 ± 12.00 µM	–	4.75	–	–	–	–	–
c1ccc(CNc2ncnc3c2nc(-c2ccccc2)n3Cc2ccccc2)cc1 [Compound L4-0c]	> 1,000 μM	> 10,000 μM	–	11.2 ± 0.35 µM	failed to be completely dissolved	active	–	–
c1ccc(CCNc2ncnc3c2ncn3CCc2ccccc2)cc1 [Compound L4-1a]	39.26 ± 4.81 µM	–	2.59	–	–	–	–	–
Cc1nc2c(NCCc3ccccc3)ncnc2n1CCc1ccccc1 [Compound L4-1b]	55.91 ± 5.64 µM	–	3.52	–	–	–	–	–
c1ccc(CCNc2ncnc3c2nc(-c2ccccc2)n3CCc2ccccc2)cc1 [Compound L4-1c]	> 1,000 μM	53.96 ± 12.33 µM	–	6.21 ± 0.29 µM	–	active	–	–
COc1ccc(CNc2ncnc3c2nc(-c2ccccc2)n3Cc2ccc(OC)cc2)cc1 [Compound L4-2c]	> 1,000 μM	> 10,000 μM	–	6.19 ± 0.21 µM	–	active	–	–
Clc1ccc(CNc2ncnc3c2ncn3Cc2ccc(Cl)cc2)cc1 [Compound L4-4a]	> 1,000 μM	> 1,000 μM	–	9.36 ± 0.4 µM	–	active	–	–
Cc1nc2c(NCc3ccc(Cl)cc3)ncnc2n1Cc1ccc(Cl)cc1 [Compound L4-4b]	27.01 ± 2.00 µM	–	5.17	–	–	–	–	–
Clc1ccc(CNc2ncnc3c2nc(-c2ccccc2)n3Cc2ccc(Cl)cc2)cc1 [Compound L4-4c]	187.50 ± 54.14 µM	164.80 ± 38.82 µM	–	4.2 ± 0.21 µM	–	active	–	–
Brc1ccc(CCNc2ncnc3c2nc(-c2ccccc2)n3CCc2ccc(Br)cc2)cc1 [Compound L4-7c]	909.20 ± 564.00 µM	550.60 ± 130.00 µM	–	7.51 ± 0.79 µM	–	active	–	–
Clc1cccc(CNc2ncnc3c2ncn3Cc2cccc(Cl)c2)c1 [Compound L4-8a]	346.30 ± 189.30 µM	35.21 ± 5.52 µM	–	–	–	–	–	–
Cc1nc2c(NCc3cccc(Cl)c3)ncnc2n1Cc1cccc(Cl)c1 [Compound L4-8b]	60.11 ± 8.50 µM	17.77 ± 0.71 µM	11.65	–	–	–	–	–
Clc1cccc(CNc2ncnc3c2nc(-c2ccccc2)n3Cc2cccc(Cl)c2)c1 [Compound L4-8c, N,9-bis(3-chlorobenzyl)-8-phenyl-9H-purin-6-amine]	> 1,000 μM	> 1,000 μM	–	7.61 ± 0.36 µM	presence of crystals	active	< 750 µM	–
Cc1nc2c(NCc3ccccc3Cl)ncnc2n1Cc1ccccc1Cl [Compound L4-9b]	> 1,000 μM	372.20 ± 51.70 µM	–	8.87 ± 0.42 µM	presence of crystals	active	< 750 µM	–
Clc1ccccc1CNc1ncnc2c1nc(-c1ccccc1)n2Cc1ccccc1Cl [Compound L4-9c]	> 10,000 μM	>10,000 μM	> 10,000	28.7 ± 2.34 µM	–	inactive	–	–
C[C@H]1O[C@@H](O[C@H]2[C@@H](O)C[C@H](O[C@H]3[C@@H](O)C[C@H](O[C@H]4CC[C@@]5(C)[C@H](CC[C@@H]6[C@@H]5CC[C@]5(C)[C@@H](C7=CC(=O)OC7)CC[C@]65O)C4)O[C@@H]3C)O[C@@H]2C)C[C@H](O)[C@@H]1O [DTX, digitoxin, reference compound]	–	–	–	–	–	–	–	1.29 ± 0.40 µM
